Assay results as given in patent publication US12448366B2, “Solid forms of pralsetinib” (Rigel Pharmaceuticals, Inc., priority 2020, dated 2025).
Where a name gives a salt, the structure may show the parent alone.

What was measured:
Type in all cases: physicochemical
[1] = Salt screening: XRPD of wet cake, after drying under vacuum at 50° C., after exposure to 97% relative humidity; conditions: for stability of salt solid form to humidification: 97% (>95%) relative humidity; for stability of salt solid form to humidification / stability of salt solid form to drying: XRPD; for stability of salt solid form to drying: vacuum at 50° C.; for XRPD Pattern Dry / XRPD Pattern Humid: salt screening; for XRPD Pattern Dry: after drying; for XRPD Pattern Humid: after humidity exposure
Description: Stock solutions of counter-ion were prepared in EtOH, MeOH, or EtOAc, depending on solubility. […] The solvent was allowed to evaporate at room temperature over the weekend and then placed at 50° C. under vacuum for 3 hours to remove any remaining solvent. Approximately 25 volumes solvent (0.6 mL) was added to each vial for screening. The three solvents selected were EtOH, EtOAc, and IPA:water (9:1 vol). […] XRPD analysis was done in three stages. XRPD of the wet cake was done for all samples. Unique solids were then left on XRPD plates and dried under vacuum at 50° C. XRPD of unique dry solids was then done. […] The humid environment was generated by placing a beaker of saturated potassium sulfate in water in a sealed container. All XRPD patterns were compared to counter ion XRPD patterns and known free base patterns. Where solids were not of sufficient quantity to isolate, the solvent was evaporated at room temperature, the material dried at 50° C. under active vacuum for 3 hours, and then reslurried at room temperature in either MtBE or IPAc overnight after heating to 45° C. for 30 minutes.

[2] = Humidity exposure, 75% relative humidity at 40° C. for one week, XRPD
[3] = One week (7 days) slurry stability by XRPD and HPLC

CO[C@]1(C(=O)N[C@@H](C)c2ccc(-n3cc(F)cn3)nc2)CC[C@H](c2nc(C)cc(Nc3cc(C)[nH]n3)n2)CC1 [Solid Form 10-A+B, pralsetinib]
stability of salt solid form to humidification ([1]; listed as 10-A+B): stable
stability of salt solid form to drying ([1]; listed as 10-A+B): stable

COC1(C(=O)NC(C)c2ccc(-n3cc(F)cn3)nc2)CCC(c2nc(C)cc(Nc3cc(C)[nH]n3)n2)CC1.Cl (stereo not shown) [HCl 5-B]
Stability 40° C./75% RH ([2]; XRPD pattern after exposure): Stable
Stability 7-day slurry [3]: Stable

CO[C@]1(C(=O)N[C@@H](C)c2ccc(-n3cc(F)cn3)nc2)CC[C@H](c2nc(C)cc(Nc3cc(C)[nH]n3)n2)CC1 [Solid Form 4-A, pralsetinib]
stability of salt solid form to humidification ([1]; listed as Pattern 4-A): stable
stability of salt solid form to drying ([1]; listed as Pattern 4-A): Pattern 4-C

CO[C@]1(C(=O)N[C@@H](C)c2ccc(-n3cc(F)cn3)nc2)CC[C@H](c2nc(C)cc(Nc3cc(C)[nH]n3)n2)CC1 (single isomer, unassigned) [Pattern 12-G+2 peaks, pralsetinib]
stability of salt solid form to humidification [1]: reverted to Pattern 12-G
stability of salt solid form to drying [1]: converted to Pattern 12-H

CO[C@]1(C(=O)N[C@@H](C)c2ccc(-n3cc(F)cn3)nc2)CC[C@H](c2nc(C)cc(Nc3cc(C)[nH]n3)n2)CC1 [hydrochloride, pralsetinib]
stability of salt solid form to humidification [1]: deliquesced
stability on exposure to 75% relative humidity at 40° C. ([2]; one week / 7 days, XRPD, listed as HCl salt): stable

CS(=O)(=O)O [MSA]
XRPD Pattern Dry ([1]; solvent IPA:water (9:1 vol)): 2-B + extra

CO[C@]1(C(=O)N[C@@H](C)c2ccc(-n3cc(F)cn3)nc2)CC[C@H](c2nc(C)cc(Nc3cc(C)[nH]n3)n2)CC1 [Solid Form 12-D, pralsetinib]
stability of salt solid form to drying ([1]; listed as Pattern 12-D): Pattern 12-E

CO[C@]1(C(=O)N[C@@H](C)c2ccc(-n3cc(F)cn3)nc2)CC[C@H](c2nc(C)cc(Nc3cc(C)[nH]n3)n2)CC1 [Solid Form 12-B, pralsetinib]
stability of salt solid form to drying ([1]; listed as Pattern 12-B): stable

CO[C@]1(C(=O)N[C@@H](C)c2ccc(-n3cc(F)cn3)nc2)CC[C@H](c2nc(C)cc(Nc3cc(C)[nH]n3)n2)CC1 [Fumarate, pralsetinib]
stability of salt solid form to drying [1]: changed

CO[C@]1(C(=O)N[C@@H](C)c2ccc(-n3cc(F)cn3)nc2)CC[C@H](c2nc(C)cc(Nc3cc(C)[nH]n3)n2)CC1 [Solid Form 8-A, pralsetinib]
stability of salt solid form to humidification ([1]; listed as Pattern 8-A): stable
stability of salt solid form to humidification ([1]; listed as maleate 8-A): stable
stability of salt solid form to drying ([1]; listed as Pattern 8-A): stable
stability of salt solid form to drying ([1]; listed as maleate 8-A): stable

CO[C@]1(C(=O)N[C@@H](C)c2ccc(-n3cc(F)cn3)nc2)CC[C@H](c2nc(C)cc(Nc3cc(C)[nH]n3)n2)CC1 [saccharine salt, pralsetinib]
stability of salt solid form to humidification [1]: changed form

CO[C@]1(C(=O)N[C@@H](C)c2ccc(-n3cc(F)cn3)nc2)CC[C@H](c2nc(C)cc(Nc3cc(C)[nH]n3)n2)CC1 [citrate, pralsetinib]
stability of salt solid form to humidification [1]: deliquesced
stability of salt solid form to humidification ([1]; listed as Citrate): deliquesced

CO[C@]1(C(=O)N[C@@H](C)c2ccc(-n3cc(F)cn3)nc2)CC[C@H](c2nc(C)cc(Nc3cc(C)[nH]n3)n2)CC1 [Solid Form 5-C, pralsetinib]
stability of salt solid form to humidification ([1]; listed as Form 5-C): stable

CO[C@]1(C(=O)N[C@@H](C)c2ccc(-n3cc(F)cn3)nc2)CC[C@H](c2nc(C)cc(Nc3cc(C)[nH]n3)n2)CC1 [Solid Form 5-A, pralsetinib]
stability of salt solid form to humidification ([1]; listed as Form 5-A): deliquesced
stability of salt solid form to humidification ([1]; listed as Pattern 5-A): deliquesced
stability of salt solid form to humidification ([1]; listed as hydrochloride (5-A)): deliquesced
stability of salt solid form to drying ([1]; listed as Form 5-A): stable
stability of salt solid form to drying ([1]; listed as Pattern 5-A): stable

CO[C@]1(C(=O)N[C@@H](C)c2ccc(-n3cc(F)cn3)nc2)CC[C@H](c2nc(C)cc(Nc3cc(C)[nH]n3)n2)CC1 [Solid Form 5-B, pralsetinib]
stability of salt solid form to humidification ([1]; listed as Pattern 5-B): stable
stability of salt solid form to drying ([1]; listed as Form 5-B): converted to Form 5-C
stability of salt solid form to drying ([1]; listed as Pattern 5-B): dried to Pattern 5-C
stability slurrying 7 days in EtOAc ([3]; EtOAc, XRPD and HPLC, listed as Pattern 5-B): stable
stability slurrying 7 days in EtOH ([3]; EtOH, XRPD and HPLC, listed as Pattern 5-B): stable
stability slurrying 7 days in EtOH:water (95:5 vol) ([3]; EtOH:water (95:5 vol), XRPD and HPLC, listed as Pattern 5-B): stable

CO[C@]1(C(=O)N[C@@H](C)c2ccc(-n3cc(F)cn3)nc2)CC[C@H](c2nc(C)cc(Nc3cc(C)[nH]n3)n2)CC1 [gentisate, pralsetinib]
stability of salt solid form to humidification [1]: deliquesced

CO[C@]1(C(=O)N[C@@H](C)c2ccc(-n3cc(F)cn3)nc2)CC[C@H](c2nc(C)cc(Nc3cc(C)[nH]n3)n2)CC1 [Solid Form 1-A, pralsetinib]
stability of salt solid form to humidification ([1]; listed as solid form 1-A): peak shift

CO[C@]1(C(=O)N[C@@H](C)c2ccc(-n3cc(F)cn3)nc2)CC[C@H](c2nc(C)cc(Nc3cc(C)[nH]n3)n2)CC1 [sulfate, pralsetinib]
stability of salt solid form to drying [1]: changed

CO[C@]1(C(=O)N[C@@H](C)c2ccc(-n3cc(F)cn3)nc2)CC[C@H](c2nc(C)cc(Nc3cc(C)[nH]n3)n2)CC1 [Solid Form 12-C, pralsetinib]
stability of salt solid form to drying ([1]; listed as Pattern 12-C): stable

CO[C@]1(C(=O)N[C@@H](C)c2ccc(-n3cc(F)cn3)nc2)CC[C@H](c2nc(C)cc(Nc3cc(C)[nH]n3)n2)CC1 [Solid Form 1-B, pralsetinib]
stability of salt solid form to humidification ([1]; listed as solid form 1-B): converted to Pattern 1-C

CO[C@]1(C(=O)N[C@@H](C)c2ccc(-n3cc(F)cn3)nc2)CC[C@@H](c2nc(C)cc(Nc3cc(C)[nH]n3)n2)CC1.Cl [HCl]
XRPD Pattern Dry ([1]; solvent EtOAc): 5-C + broad
XRPD Pattern Humid ([1]; solvent EtOAc): 5-C + trace
XRPD Pattern Humid ([1]; solvent IPA:water (9:1 vol)): 5-C + trace

CO[C@]1(C(=O)N[C@@H](C)c2ccc(-n3cc(F)cn3)nc2)CC[C@H](c2nc(C)cc(Nc3cc(C)[nH]n3)n2)CC1 [Pyruvate, pralsetinib]
stability of salt solid form to humidification [1]: changed form

CO[C@]1(C(=O)N[C@@H](C)c2ccc(-n3cc(F)cn3)nc2)CC[C@H](c2nc(C)cc(Nc3cc(C)[nH]n3)n2)CC1 [Solid Form 4-B, pralsetinib]
stability of salt solid form to humidification ([1]; listed as Pattern 4-B): stable

CO[C@]1(C(=O)N[C@@H](C)c2ccc(-n3cc(F)cn3)nc2)CC[C@H](c2nc(C)cc(Nc3cc(C)[nH]n3)n2)CC1 [Solid Form 6-A, pralsetinib]
stability of salt solid form to humidification ([1]; listed as Pattern 6-A): became amorphous with one peak

CO[C@]1(C(=O)N[C@@H](C)c2ccc(-n3cc(F)cn3)nc2)CC[C@H](c2nc(C)cc(Nc3cc(C)[nH]n3)n2)CC1 [Solid Form 9-A, pralsetinib]
stability of salt solid form to humidification ([1]; listed as 9-A): stable
stability of salt solid form to humidification ([1]; listed as oxalate 9-A): stable
stability of salt solid form to drying ([1]; listed as 9-A): stable
stability of salt solid form to drying ([1]; listed as oxalate 9-A): stable

CO[C@]1(C(=O)N[C@@H](C)c2ccc(-n3cc(F)cn3)nc2)CC[C@H](c2nc(C)cc(Nc3cc(C)[nH]n3)n2)CC1 [sulfates generated from the 1.1 eq. experiments] [pralsetinib]
stability of salt solid form to humidification [1]: changed form
